From patent US7470680B2, “Constrained compounds as CGRP-receptor antagonists” (Bristol-Myers Squibb Company, priority 2006, dated 2008)

Biological target: CGRP receptor (Homo sapiens, UniProt O60894+Q16602)
Assay: CGRP radioligand binding assay ([125I]-CGRP displacement, SK-N-MC homogenate)
Parameters: endogenous in cells; host or cells: SK-N-MC cells (homogenate/membrane pellet)
Conditions: displacement of [125I]-CGRP, SK-N-MC membranes
Protocol: CGRP Binding Assay. Tissue Culture. SK-N-MC cells were grown at 37° C. in 5% CO2 as a monolayer in medium consisting of MEM with Earle's salts and L-glutamine (Gibco) supplemented with 10% fetal bovine serum (Gibco). Cell Pellets. The cells were rinsed twice with phosphate-buffered saline (155 mM NaCl, 3.3 mM Na2HPO4, 1.1 mM KH2PO4, pH 7.4), and incubated for 5-10 min. at 4° C. in hypotonic lysis buffer consisting of 10 mM Tris (pH 7.4) and 5 mM EDTA. The cells were transferred from plates to polypropylene tubes (16×100 mm) and homogenized using a polytron. Homogenates were centrifuged at 32,000×g for 30 min. The pellets were resuspended in cold hypotonic lysis buffer with 0.1% mammalian protease inhibitor cocktail (Sigma) and assayed for protein concentration. The SK-N-MC homogenate was then aliquoted and stored at −80° C. until needed.
Radioligand Binding Assay. The compounds of invention were solubilized and carried through serial dilutions using 100% DMSO. Aliquots from the compound serial dilutions were further diluted 25 fold into assay buffer (50 mM Tris-Cl pH 7.5, 5 mM MgCl2, 0.005% Triton X-100) and transferred (volume 50 μl) into 96 well assay plates. [^125I]-CGRP (Amersham Biosciences) was diluted to 60 pM in assay buffer and a volume of […] was added to each well. SK-N-MC pellets were thawed, diluted in assay buffer with fresh 0.1% mammalian protease inhibitor cocktail (Sigma), and homogenized again. SK-N-MC homogenate (5 μg/well) was added in a volume of 100 μl. The assay plates were then incubated at room temperature for 2 h. Assays were stopped by addition of excess cold wash buffer (20 mM Tris-Cl pH 7.5, 0.1% BSA) immediately followed by filtration over glass fiber filters (Whatman GF/B) previously soaked in 0.5% PEI. Non-specific binding was defined with 1 μM beta-CGRP. Protein bound radioactivity was determined using a gamma or scintillation counter. The IC50 was defined as the concentration of a compound of invention required to displace 50% of radioligand binding.

Sequence of CGRP receptor (Q16602 23-461): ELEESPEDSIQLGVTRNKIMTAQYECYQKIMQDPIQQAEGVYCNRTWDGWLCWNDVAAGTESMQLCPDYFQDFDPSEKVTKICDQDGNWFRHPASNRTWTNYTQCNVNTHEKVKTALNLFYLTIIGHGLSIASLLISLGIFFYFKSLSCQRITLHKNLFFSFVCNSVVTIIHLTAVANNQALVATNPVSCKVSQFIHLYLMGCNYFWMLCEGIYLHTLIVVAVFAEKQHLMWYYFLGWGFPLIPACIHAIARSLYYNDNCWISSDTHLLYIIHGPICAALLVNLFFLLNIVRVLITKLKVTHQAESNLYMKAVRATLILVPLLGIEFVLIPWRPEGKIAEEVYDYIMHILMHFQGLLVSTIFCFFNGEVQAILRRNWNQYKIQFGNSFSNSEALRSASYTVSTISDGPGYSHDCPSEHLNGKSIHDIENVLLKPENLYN
Sequence of CGRP receptor (O60894 27-148): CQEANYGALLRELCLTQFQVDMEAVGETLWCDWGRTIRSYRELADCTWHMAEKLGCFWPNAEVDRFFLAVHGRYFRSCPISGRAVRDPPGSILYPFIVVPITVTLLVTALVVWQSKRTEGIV

| Structure (SMILES) | IC50 (Table 2) | IC50 (Table 1) |
| --- | --- | --- |
| CC(=O)N1CCC(N2Cc3c(ccc4[nH]ncc34)C[C@@H](NC(=O)N3CCC(N4Cc5ccccc5NC4=O)CC3)C2=O)CC1 | 10 to 100 nM | – |
| Cn1ncc2c3c(cc(Cl)c21)C[C@@H](CC(=O)N1CCC(N2CCc4ccccc4NC2=O)CC1)C(=O)N(CC(F)(F)F)C3 | – | 0.01 to 10 nM |
| O=C1Nc2ccccc2C2(CCN(C(=O)C[C@@H]3Cc4cc(Cl)c5[nH]ncc5c4CN(CC(F)(F)F)C3=O)CC2)N1 | – | 0.01 to 10 nM |
| O=C1Nc2ccccc2CC1N1CCN(C(=O)N[C@@H]2Cc3ccc4[nH]ncc4c3CN(Cc3ccccc3)C2=O)CC1 (stereo partly drawn) | 100 to 1000 nM | – |
| O=C(C[C@@H]1Cc2cc(Br)c3[nH]nc(Cl)c3c2CN(CC(F)(F)F)C1=O)N1CCC(n2c(=O)[nH]c3ncccc32)CC1 | – | 0.01 to 10 nM |
| O=C(C[C@@H]1Cc2cc(Cl)c3[nH]nc(Cl)c3c2CN(CCN2CCCCC2)C1=O)N1CCC(n2c(=O)[nH]c3ncccc32)CC1 | – | 0.01 to 10 nM |
| O=C(C[C@@H]1Cc2cc(Br)c3[nH]nc(Cl)c3c2CN(CC(F)(F)F)C1=O)N1CCC(N2CCc3ccccc3NC2=O)CC1 | – | 0.01 to 10 nM |
| O=C(C[C@@H]1Cc2cc(Cl)c3[nH]nc(Cl)c3c2CN(CC(F)(F)F)C1=O)N1CCC(n2c(=O)[nH]c3ncccc32)CC1 | – | 0.01 to 10 nM |
| CC(C)(C)CN1Cc2c(cc(Cl)c3[nH]ncc23)C[C@@H](CC(=O)N2CCC(c3cc4scc(Br)c4[nH]c3=O)CC2)C1=O | – | 0.01 to 10 nM |
| Cc1cc2c(c3cn[nH]c13)CN(CC(F)(F)F)C(=O)[C@H](CC(=O)N1CCC(c3cc4ccccc4[nH]c3=O)CC1)C2 | 0.01 to 10 nM | – |
| CC(C)(C)CN1Cc2c(cc(Cl)c3[nH]ncc23)C[C@@H](N/C(=N/C#N)N2CCC(c3cc4ccccc4[nH]c3=O)CC2)C1=O | 0.01 to 10 nM | – |
| CC(C)(C)CN1Cc2c(cc(Cl)c3[nH]ccc23)C[C@@H](CC(=O)N2CCC(c3cc4[nH]ccc4[nH]c3=O)CC2)C1=O | – | 0.01 to 10 nM |
| O=C(C[C@@H]1Cc2cc(Cl)c3[nH]ncc3c2CN(Cc2ccncc2)C1=O)N1CCC(c2cc3ccccc3c[n+]2[O-])CC1 | 0.01 to 10 nM | – |
| CC(C)(C)CN1Cc2c(cc(Cl)c3[nH]ncc23)C[C@@H](CC(=O)Nc2ccc3c(c2)CCC2(C3)NC(=O)NC2=O)C1=O (stereo partly drawn) | 0.01 to 10 nM | – |
| CC(C)(C)CN1Cc2c(cc(Cl)c3[nH]ncc23)C[C@@H](CC(=O)N2CCC(c3cc4cccnc4[nH]c3=O)CC2)C1=O | 0.01 to 10 nM | – |
| O=C(C[C@@H]1Cc2cc(Cl)c3[nH]ncc3c2CN(CC(F)(F)F)C1=O)N1CCC(n2c(=O)[nH]c3ncccc32)CC1 | – | 0.01 to 10 nM |
| O=C(C[C@@H]1Cc2cc(Cl)c3[nH]ncc3c2CN(CC(F)(F)F)C1=O)N1CCC(N2CCc3ncccc3NC2=O)CC1 | – | 0.01 to 10 nM |
| CC(C)(C)CN1Cc2c(ccc3[nH]ncc23)C[C@@H](NC(=O)N2CCC3(CC2)N=C(c2ccccc2)NC3=O)C1=O | 100 to 1000 nM | – |
| O=C(C[C@@H]1Cc2cc(Br)c3[nH]ncc3c2CN(CC2CC2)C1=O)N1CCC(c2cc3ccccc3[nH]c2=O)CC1 | 0.01 to 10 nM | – |
| O=C(O[C@@H]1Cc2cc(Cl)c3[nH]ncc3c2CN(CC(F)(F)F)C1=O)N1CCC(N2CCc3ccccc3NC2=O)CC1 | – | 0.01 to 10 nM |
| O=C(C[C@@H]1Cc2cc(Cl)c3[nH]ncc3c2CN(CC(F)(F)F)C1=O)N1CCC(N2CCN(c3ccccc3F)C2=O)CC1 | – | > 1000 nM |
| O=C(N[C@@H]1Cc2cc3cn[nH]c3cc2CN(Cc2ccccc2)C1=O)N1CCC(N2Cc3ccccc3NC2=O)CC1 | 0.01 to 10 nM | – |
| COCCN1Cc2c(cc(Br)c3[nH]ncc23)C[C@@H](CC(=O)N2CCC(c3cc4ccccc4[nH]c3=O)CC2)C1=O | 0.01 to 10 nM | – |
| CC(C)(C)CN1Cc2c(cc(Cl)c3[nH]ncc23)C[C@@H](CC(=O)N2CCC(c3cc4sc(Br)cc4[nH]c3=O)CC2)C1=O (mixture of isomers) | – | 0.01 to 10 nM |
| CC(C)(C)CN1Cc2c(cc(Cl)c3[nH]ncc23)C[C@@H](CC(=O)N2CCC(c3cc4scc(Cl)c4[nH]c3=O)CC2)C1=O (mixture of isomers) | – | 0.01 to 10 nM |
| O=C1NC(=O)C(C2CCN(C(=O)C[C@@H]3Cc4cc(Cl)c5[nH]ncc5c4CN(CC(F)(F)F)C3=O)CC2)N1 (stereo partly drawn) | – | 100 to 1000 nM |
| O=C(O[C@@H]1Cc2cc(Cl)c3[nH]ncc3c2CN(CC(F)(F)F)C1=O)N1CCC(n2c(=O)[nH]c3ncccc32)CC1 | – | 0.01 to 10 nM |

| Structure (SMILES) | IC50 (Table 2) | IC50 (Table 1) |
| --- | --- | --- |
| O=C1NC(=O)C2(CCN(C(=O)C[C@@H]3Cc4cc(Cl)c5[nH]ncc5c4CN(CC(F)(F)F)C3=O)CC2)N1 | – | 10 to 100 nM |
| O=C(C[C@@H]1Cc2cc(Cl)c3[nH]ncc3c2CN(CC(F)(F)F)C1=O)N1CCC(c2cc3cccc(F)c3[nH]c2=O)CC1 | 0.01 to 10 nM | – |
| O=C(C[C@@H]1Cc2cc(Br)c3[nH]ncc3c2CN(CC(F)(F)F)C1=O)N1CCC(c2cc3cccnc3[nH]c2=O)CC1 | 0.01 to 10 nM | – |
| N#Cc1cc(Cl)ccc1C1=CCN(C(=O)C[C@@H]2Cc3cc(Cl)c4[nH]ncc4c3CN(CC(F)(F)F)C2=O)CC1 | – | 10 to 100 nM |
| CC(C)(C)CN1Cc2c(ccc3[nH]ncc23)CC(N/C(=N/C#N)N2CCC(N3Cc4ccccc4NC3=O)CC2)C1=O (stereo not drawn) | 0.01 to 10 nM | – |
| Cc1cc2c(c3cn[nH]c13)CN(CC(C)(C)C)C(=O)[C@H](CC(=O)N1CCC(c3cc4ccccc4[nH]c3=O)CC1)C2 | 0.01 to 10 nM | – |
| O=C(C[C@@H]1Cc2cc(Cl)c3[nH]ncc3c2CN(CC(F)(F)F)C1=O)N1CCC(n2ccn(-c3ccccc3F)c2=O)CC1 | – | > 1000 nM |
| CC(C)(C)CN1Cc2c(ccc3[nH]ncc23)C[C@@H](NC(=O)N2CCC3(CC2)CC(=O)Nc2ccccc23)C1=O | > 1000 nM | – |
| O=C(C[C@@H]1Cc2cc(Cl)c3[nH]ncc3c2CN(CC(F)(F)F)C1=O)N1CCC(n2ccn(-c3ccccc3)c2=O)CC1 | – | 100 to 1000 nM |
| CC(C)(C)CN1Cc2c(cc(Cl)c3[nH]ncc23)C[C@@H](CC(=O)N2CCC(c3cc4cc(F)c(F)cc4[nH]c3=O)CC2)C1=O | 10 to 100 nM | – |
| O=C(C[C@@H]1Cc2cc(Cl)c3[nH]ncc3c2CN(CC(F)(F)F)C1=O)N1CCC(c2cc3ccccc3[nH]c2=O)CC1 | 0.01 to 10 nM | – |
| CC(C)(C)CN1Cc2c(cc(Br)c3[nH]ncc23)C[C@@H](CC(=O)N2CCC(c3cc4ccccc4[nH]c3=O)CC2)C1=O | 0.01 to 10 nM | – |
| CC(C)(C)CN1Cc2c(cc(Cl)c3[nH]ncc23)C[C@@H](CC(=O)N2CCC(c3cc4ccc(F)cc4[nH]c3=O)CC2)C1=O | 0.01 to 10 nM | – |
| CC(C)(C)CN1Cc2c(cc(Cl)c3[nH]ccc23)C[C@@H](CC(=O)N2CCC(O)(c3cc(Cl)nc4[nH]ccc34)CC2)C1=O | – | 100 to 1000 nM |
| O=C(C[C@@H]1Cc2cc(Cl)c3[nH]ncc3c2CN(CC(F)(F)F)C1=O)N1CCC(n2c(=O)[nH]c3c2ccc[n+]3[O-])CC1 | – | 10 to 100 nM |
| O=C(C[C@@H]1Cc2cc(Cl)c3[nH]nc(Cl)c3c2CN(CCN2CCCCC2)C1=O)N1CCC(N2CCc3ccccc3NC2=O)CC1 | – | 0.01 to 10 nM |
| O=C(C[C@@H]1Cc2cc(Cl)c3[nH]ncc3c2CN(CC(F)(F)F)C1=O)N1CCC(N2CCc3cccc(F)c3NC2=O)CC1 | – | 10 to 100 nM |
| O=C(C[C@@H]1Cc2cc(Cl)c3[nH]ncc3c2CN(CC(F)(F)F)C1=O)N1CCC(n2cc[nH]c2=O)CC1 | – | 0.01 to 10 nM |
| CC(C)(C)CN1Cc2c(cc(Cl)c3[nH]ncc23)C[C@@H](CC(=O)N2CCC(N3Cc4cccnc4NC3=O)CC2)C1=O | 0.01 to 10 nM | – |
| O=C(C[C@@H]1Cc2cc(Cl)c3[nH]ncc3c2CN(CC(F)(F)F)C1=O)N1CCC(N2CCc3cccnc3NC2=O)CC1 | – | 0.01 to 10 nM |
| O=C(C[C@@H]1Cc2cc(Cl)c3[nH]ncc3c2CN(CC(F)(F)F)C1=O)N1CCC(N2CCc3ccccc3NC2=O)CC1 | – | 0.01 to 10 nM |
| O=C(C[C@@H]1Cc2cc(Cl)c3[nH]ncc3c2CN(CC(F)(F)F)C1=O)N1CCC(N2Cc3ccccc3NC2=O)CC1 | 0.01 to 10 nM | – |
| CC(C)(C)CN1Cc2c(cc(Cl)c3[nH]ncc23)C[C@@H](CC(=O)N2CCC(c3cc4sc(Cl)cc4[nH]c3=O)CC2)C1=O | – | 0.01 to 10 nM |
| Cn1ccc2[nH]c(=O)c(C3CCN(C(=O)C[C@@H]4Cc5cc(Cl)c6[nH]ccc6c5CN(CC(C)(C)C)C4=O)CC3)cc21 | – | 0.01 to 10 nM |
| O=C(C[C@@H]1Cc2cc(Cl)c3[nH]ncc3c2CN(CC(F)(F)F)C1=O)N1CCC(c2cc3cccnc3[nH]c2=O)CC1 | 0.01 to 10 nM | – |
| O=C(C[C@@H]1Cc2cc(Cl)c3[nH]ncc3c2CN(CC(F)(F)F)C1=O)N1CCC(n2c(=O)[nH]c3ccccc32)CC1 | – | 0.01 to 10 nM |
| CCCn1ncc2c3c(cc(Cl)c21)C[C@@H](CC(=O)N1CCC(N2CCc4ccccc4NC2=O)CC1)C(=O)N(CC(F)(F)F)C3 | – | 10 to 100 nM |
